Assay results: publication PMC7822874, “Chemoprotective antimalarials identified through quantitative high-throughput screening of Plasmodium blood and liver stage parasites” (Scientific Reports, 2021)
Like-named read-outs stand apart in the source and are kept apart here.

System: Plasmodium falciparum Dd2 asexual blood stage parasites
Test: microbe, parasite or virus in culture
Design: species or system Plasmodium falciparum Dd2 in human erythrocytes; single determination (one 11-point concentration-response curve)
Details: Plasmodium falciparum, DD2, Erythrocyte, 72 h

| SMILES | AC50 (read-out: AC50) [µM] | AC50 [µM] |
| --- | --- | --- |
| COc1cc(-c2nc(-c3ccccc3)c(-c3ccc(Br)cc3)[nH]2)cc(OC)c1O [NCGC00100017-01] | 2.11 |  |
| Cc1ccc(-c2nnc(Nc3ccc(OCC(N)=O)cc3)c3ccccc23)cc1[S+](=O)([O-])NCC1CCCO1 (centres unmarked) [NCGC00100178-01] | 4.73 |  |
| CCCCN1C(=O)C(O)(CC(=O)c2ccc(C(C)(C)C)cc2)c2ccccc21 (centres unmarked) [NCGC00100209-01] | 4.73 |  |
| CCCn1c(=N)c(C(=O)NC2CCCC2)cc2c(=O)n3cccc(C)c3nc21 [NCGC00100358-01] | 5.96 |  |
| Cc1cccn2c(=O)c3cc(C(=O)NC(C)c4ccccc4)c(=N)n(CCOCCO)c3nc12 (centres unmarked) [NCGC00100488-01] | 10.6 |  |
| CC1CCCN(Cc2c(O)ccc3c(=O)c(-c4ccc(Cl)cc4)c(C(F)(F)F)oc23)C1 (centres unmarked) [NCGC00100583-01] | 0.841 |  |
| CC1CCCN(Cc2c(O)ccc3c(=O)c(Oc4ccc(C(C)(C)C)cc4)c(C(F)(F)F)oc23)C1 (centres unmarked) [NCGC00100587-01] | 0.299 |  |
| COc1ccc(NC(=O)c2sc3nc4c(c(-c5ccc(OC)cc5)c3c2N)C(=O)CC(C)(C)C4)cc1 [NCGC00100714-01] | 1.88 |  |
| COc1ccc(-c2c3c(nc4sc(C(=O)Nc5ccc(F)cc5)c(N)c24)CC(C)(C)CC3=O)cc1 [NCGC00100718-01] | 0.944 |  |
| COc1ccc(-c2c3c(nc4sc(C(=O)Nc5ccc(Cl)cc5)c(N)c24)CC(C)(C)CC3=O)cc1 [NCGC00100738-01] | 0.376 |  |
| CCOC(=O)c1sc(NC(=O)C2c3ccccc3Oc3ccccc32)c(C(=O)OCC)c1C [NCGC00100913-01] | 2.66 |  |
| CCCCn1c(=N)c(C(=O)NC2CCCCC2)cc2c(=O)n3cccc(C)c3nc21 [NCGC00101037-01] | 1.5 |  |
| Cc1cc(Oc2c(C(F)(F)F)oc3c(CN4CCC(C)CC4)c(O)ccc3c2=O)cc(C)c1Cl [NCGC00101140-01] | 0.75 |  |
| CCOC(=O)c1sc(NC(=O)C(C)Sc2nc(-c3ccccc3)cc(C(F)(F)F)n2)c(C(=O)OC)c1C (centres unmarked) [NCGC00101272-01] | 2.37 |  |
| CCN(CC)C(=O)c1sc(NC(=O)C(C)Sc2nc(-c3ccccc3)cc(C(F)(F)F)n2)c(C(=O)OC)c1C (centres unmarked) [NCGC00101276-01] | 0.596 |  |
| Cc1ccc(Oc2c(C(F)(F)F)oc3c(CN4CCC(C)CC4)c(O)ccc3c2=O)cc1 [NCGC00101480-01] | 1.68 |  |
| CC1CCN(Cc2c(O)ccc3c(=O)c(Oc4ccccc4Cl)c(C(F)(F)F)oc23)CC1 [NCGC00101482-01] | 1.33 |  |
| CCc1ccc(Oc2c(C(F)(F)F)oc3c(CN4CCN(C)CC4)c(O)ccc3c2=O)cc1 [NCGC00101488-01] | 0.75 |  |
| COc1ccc(Oc2c(C(F)(F)F)oc3c(CN4CCCC(C)C4)c(O)ccc3c2=O)cc1 (centres unmarked) [NCGC00101510-01] | 2.37 |  |
| CC1CCCN(Cc2c(O)ccc3c(=O)c(Oc4ccccc4Cl)c(C(F)(F)F)oc23)C1 (centres unmarked) [NCGC00101512-01] | 2.11 |  |
| CCc1ccc(Oc2c(C(F)(F)F)oc3c(CN4CCCC(C)C4)c(O)ccc3c2=O)cc1 (centres unmarked) [NCGC00101514-01] | 1.33 |  |
| O=C(c1cccs1)c1cn(CCOc2ccc(Cl)cc2)c2ccccc12 [NCGC00101601-01] |  | 5.96 |
| CCOc1ccc(CN(CCc2ccc3c(c2)OCO3)Cc2cc(OC)ccc2O)cc1 [NCGC00101752-01] | 0.668 |  |
| Cc1ccccc1OCCn1cc(C(=O)c2ccco2)c2ccccc21 [NCGC00101854-01] | 5.31 |  |
| Cc1ccc(C)c(OCCn2cc(C(=O)c3ccco3)c3ccccc32)c1 [NCGC00101856-01] |  | 5.31 |

| SMILES | AC50 (read-out: AC50) [µM] | AC50 [µM] |
| --- | --- | --- |
| O=C(c1ccco1)c1cn(CCOc2ccc(F)cc2)c2ccccc12 [NCGC00101884-01] |  | 6.68 |
| COc1ccc(OCCn2cc(C(=O)c3ccco3)c3ccccc32)cc1 [NCGC00101886-01] | 2.11 |  |
| CCCOc1cccc(C2c3c(oc4cc(C)c(C)cc4c3=O)C(=O)N2CCCN2CCOCC2)c1 (centres unmarked) [NCGC00101917-01] | 13.3 |  |
| O=C(Nc1ccccc1)c1cc2c(-c3ccccc3)nn(-c3ccccc3)c2s1 [NCGC00102084-01] | 3.35 |  |
| O=C(Nc1ccc(Cl)cc1)c1cc2c(-c3ccccc3)nn(-c3ccccc3)c2s1 [NCGC00102088-01] | 2.37 |  |
| Cc1ccccc1NC(=O)c1cc2c(-c3ccccc3)nn(-c3ccccc3)c2s1 [NCGC00102094-01] | 11.9 |  |
| Cn1c2ccc(F)cc2c2nnc(SCCN3CCCCC3)nc21 [NCGC00102309-01] | 15 |  |
| CCOC(=O)c1ccc(NC2=CC(c3ccc(F)cc3)N(c3ccc(C(=O)OCC)cc3)C2=O)cc1 (centres unmarked) [NCGC00102598-01] | 8.41 |  |
| COc1cc(/C=C(\C#N)c2nc3ccccc3[nH]2)cc(Cl)c1OCc1ccccc1Cl [NCGC00102602-01] | 5.31 |  |
| COc1cccc(CNCCSc2nnnn2C)c1OCc1ccc(Cl)cc1 [NCGC00103033-01] | 2.66 |  |
| COc1cc2c(C(=O)N3CCN(c4cc(Cl)ccc4C)CC3)cn(CC(C)C)c(=O)c2cc1OC [NCGC00103751-01] | 15 |  |
| CCN1CCN(c2cc(C)c3cc(NC(=O)c4cc(OC)cc(OC)c4)ccc3n2)CC1 [NCGC00103842-01] | 3.35 |  |
| CCN1CCN(c2cc(C)c3cc(NC(=O)/C=C/c4cccc(OC)c4OC)ccc3n2)CC1 [NCGC00103854-01] | 5.96 |  |
| CCOc1ccccc1C(=O)N1CC(=O)Nc2ccc(Cl)cc2C1c1ccccc1 (centres unmarked) [NCGC00103922-01] | 9.44 |  |
| CCOC(=O)c1cc2c(=O)n3ccccc3nc2n(CC(C)C)/c1=N\C(=O)COc1ccc(Cl)cc1 [NCGC00104075-01] | 10.6 |  |
| CCN(c1ccccc1)[S+](=O)([O-])c1cc(Br)cc2c1N(C(=O)C1CC1)CC2 [NCGC00104258-01] | 2.99 |  |
| CCN(CC)c1cc(C)c2cc(NC(=O)/C=C/c3cc(OC)c(OC)c(OC)c3)ccc2n1 [NCGC00104274-01] | 4.73 |  |
| CCOc1ccc(/C=C/C(=O)Nc2ccc3nc(N(CC)CC)cc(C)c3c2)cc1OC [NCGC00104284-01] | 1.88 |  |
| O=C(C1CC1)N1CCc2cc(Br)cc([S+](=O)([O-])N3CCN(c4cccc(C(F)(F)F)c4)CC3)c21 [NCGC00104294-01] | 4.73 |  |
| CC(=O)N1c2c(cc(Br)cc2[S+](=O)([O-])N2CCN(c3cc(C)ccc3C)CC2)CC1C (centres unmarked) [NCGC00104358-01] | 11.9 |  |
| COc1cccc(/C=C/C(=O)Nc2ccc3nc(N4CCN(C)CC4)cc(C)c3c2)c1OC [NCGC00104449-01] | 5.96 |  |
| CC(C)CN(CCNC(=O)c1cc(-c2ccc(Cl)s2)nc2ccccc12)CC(C)C [NCGC00104475-01] | 7.5 |  |
| CCOC(=O)c1ccccc1NC(=O)c1cn(CC(C)C)c(=O)c2cc(OC)c(OC)cc12 [NCGC00104537-01] | 8.41 |  |
| CC(=O)c1sc2c(c1C)c(=O)n(-c1ccc(Cl)cc1)c(=O)n2Cc1cc(=O)n2cc(Cl)ccc2n1 [NCGC00104860-01] | 7.5 |  |
| COc1cc2c(cc1OC)C(COc1ccc3c(C)cc(=O)oc3c1)N(C(=O)Cc1ccc(F)cc1)CC2 (centres unmarked) [NCGC00104919-01] | 5.96 |  |

| SMILES | AC50 (read-out: AC50) [µM] | AC50 [µM] |
| --- | --- | --- |
| COc1cc2c(cc1OC)C(COc1ccc3c(C)cc(=O)oc3c1)N(C(=O)c1ccccc1C)CC2 (centres unmarked) [NCGC00104945-01] | 15 |  |
| COc1cccc(NC(=O)c2sc3nc(C)c(C(=O)Nc4ccc(C)cc4C)c(-c4ccccc4Cl)c3c2N)c1 [NCGC00104946-01] | 2.66 |  |
| Cc1nc2sc(C(=O)Nc3ccc(F)cc3)c(N)c2c(-c2ccc(Br)cc2)c1C(=O)Nc1ccc(Cl)cc1 [NCGC00105115-01] | 8.41 |  |
| Cc1ccc(-c2nc3n(n2)C(c2ccccc2Cl)C=C(c2ccc(Cl)cc2)N3)cc1 (centres unmarked) [NCGC00105122-01] | 9.44 |  |
| Cc1ccc(C2=CC(c3ccc(Cl)cc3)n3nc(-c4ccc(C)cc4)nc3N2)cc1 (centres unmarked) [NCGC00105128-01] | 1.68 |  |
| Cc1ccc(Cl)cc1N1CCN(C(=O)c2cn(CC(C)C)c(=O)c3c2c2ccccc2n3C)CC1 [NCGC00106023-01] | 3.35 |  |
| Cc1sc2c(c1C)c(=O)n(-c1cccc(C(F)(F)F)c1)c(=O)n2Cc1ccc(F)cc1 [NCGC00106130-01] | 2.11 |  |
| O=C(Cn1c(=O)n(Cc2ccc(C(=O)NCc3ccc4c(c3)OCO4)cc2)c(=O)c2ccccc21)Nc1cccc(Cl)c1 [NCGC00106483-01] | 5.96 |  |
| COc1cc(NC(=O)Cn2c(=O)n(CC3CCC(C(=O)NCCc4ccccc4)CC3)c(=O)c3ccccc32)cc(OC)c1 (centres unmarked) [NCGC00106543-01] | 5.96 |  |
| Cc1ccc2nc(-c3ccccc3O)c(Nc3ccccc3C)n2c1 [NCGC00106804-01] | 2.37 |  |
| COc1cccc(NC(=O)c2sc3nc(C)c(C(=O)Nc4ccc(C)cc4C)c(-c4cccs4)c3c2N)c1 [NCGC00107008-01] | 5.96 |  |
| COc1cc(C2CC(=O)Nc3cc4c(cc32)OCCO4)cc(Br)c1OC (centres unmarked) [NCGC00107055-01] | 5.31 |  |
| COc1cc(Br)c(C2CC(=O)Nc3cc4c(cc32)OCCO4)cc1OC (centres unmarked) [NCGC00107079-01] | 2.37 |  |
| O=C(CC[S+](=O)([O-])c1cc(Br)cc2c1N(C(=O)C1CC1)CC2)N1CCN(c2cccc(Cl)c2)CC1 [NCGC00107190-01] | 13.3 |  |
| CCOC(=O)c1ccc(Nc2nc(N)c3cc(OC)c(OC)cc3n2)cc1 [NCGC00107259-01] | 1.88 |  |
| CCn1c(=O)c(=O)n(CC)c2cc(N3CCCCC3)c(NC(=O)c3ccc(Cl)cc3)cc21 [NCGC00107440-01] | 7.5 |  |
| Cc1nnc2c(N3CCN(c4ccccc4)CC3)nc3ccc(C(=O)c4ccccc4)cc3n12 [NCGC00107547-01] | 0.841 |  |
| COc1ccc(Nc2c(-c3cc(Br)ccc3O)nc3ncccn23)cc1OC [NCGC00107676-01] | 4.73 |  |
| COCCNC(=O)CSc1nc(-c2cc(OC)c(OC)c(OC)c2)[nH]c1-c1ccc(Cl)cc1 [NCGC00107926-01] | 8.41 |  |
| CN(C)CCNC(=O)c1ccc2c(c1)N(Cc1c(F)cccc1Cl)C(=O)c1ccccc1S2 [NCGC00108148-01] | 2.11 |  |
| O=C(NCc1ccco1)c1ccc2c(c1)N(Cc1c(F)cccc1Cl)C(=O)c1ccccc1S2 [NCGC00108150-01] | 13.3 |  |
| CN1CCN(C(=O)c2ccc3c(c2)N(Cc2c(F)cccc2Cl)C(=O)c2ccccc2S3)CC1 [NCGC00108178-01] | 0.0596 |  |
| CCN1CCN(C(=O)c2ccc3c(c2)N(Cc2c(F)cccc2Cl)C(=O)c2ccccc2S3)CC1 [NCGC00108184-01] | 0.00842 |  |
| CCOc1ccc(CN2C(=O)c3ccccc3Sc3ccc(C(=O)N4CCN(C)CC4)cc32)cc1 [NCGC00108216-01] | 0.299 |  |
